Columns and labels:
[1] = biological target: T1, human CB1 (Homo sapiens (Human), UniProt P21554); test: In vitro cannabinoid receptor activity assay (calcium mobilization, FLIPR) in CHO cells expressing human CB1 and Gαq16; type: cell-based; conditions: for EC50: CHO cells, hCB1, calcium fluorescence, read-out: hCB1 Ca EC50; for hCB1 Ca Span: percentage of the maximum CP55940 signal
Experimental: (§1) In vitro cannabinoid receptor activity assay. Chinese Hamster Ovary (CHO) cells stably expressing either human CB1 or CB2 cDNA and the promiscuous G-protein Gαq16 were transferred to each well of a black Costar 96-well optical bottom plate (Corning Corporation). Each plate was incubated at 37° C. for 24 hr to confluence. The culture media was removed from the plates and cells were subsequently loaded with a fluorescent calcium probe (Calcium 5 dye, Molecular Devices) at a final loading concentration of 2 μM in a HBSS-based buffer containing 20 mM HEPES, 1% BSA and 10 μM Probenecid (Sigma) in a total volume of 225 μl. Cells were incubated at 37° C. for 1 hr and then stimulated with various concentrations of a test agent using a FLIPR Tetra plate-reader, which automatically added the agonist at 10× concentration to each well after reading baseline values for ˜17 sec. Agonist-mediated change in fluorescence (488 nm excitation, 525 nm emission) was monitored in each well at 1 sec intervals for 60 sec and reported for each well. Data were analyzed using Prism software (GraphPad). Non-linear regression analysis was performed to fit data and obtain maximum response (Emax), effective concentration for 50% response (EC50), correlation coefficient (r2) and other parameters. All experiments were performed 3-6 times to ensure reproducibility.
(§2) Reference is made to the following reference, hereby incorporated by reference with regard to such assay, Seltzman, et al., Peripherally Selective Cannabinoid 1 Receptor (CB1R) Agonists for the Treatment of Neuropathic Pain, J Med Chem. 2016 Aug. 25; 59 (16):7525-43. doi: 10.1021/acs.jmedchem.6b00516. Epub 2016 Aug. 10.

[2] = biological target: T2, human CB2 (Homo sapiens (Human), UniProt P34972); test: In vitro cannabinoid receptor activity assay (calcium mobilization, FLIPR) in CHO cells expressing human CB2 and Gαq16; type: cell-based; conditions: for EC50: CHO cells, hCB2, calcium fluorescence, read-out: hCB2 Ca EC50; for hCB2 Ca Span: percentage of the maximum CP55940 signal
Experimental: as §1, §2

[3] = biological target: T1, human CB1; test: In vitro binding affinity, [3H]CP-55,940 radioligand displacement, HEK cell membranes overexpressing human CB1; conditions: [3H]CP-55,940 displacement, read-out: hCB1 Ki
Experimental: (§3) In vitro binding affinity determination using radioligand displacement. Plasma membranes were isolated from HEK cells overexpressing either human CB1 or CB2. Binding was initiated with the addition of 40 μg of cell membrane proteins to assay tubes containing [3H]CP-55,940 (ca. 130 Ci/mmol), a test compound (for displacement studies), and a sufficient quantity of buffer (50 mM Tris-HCl, 1 mM EDTA, 3 mM MgCl2, 5 mg/mL BSA, pH 7.4) to bring the total incubation volume to 0.5 mL. Nonspecific binding was determined by the inclusion of 10 μM unlabeled CP-55,940. Following incubation at 30° C. for 1 h, binding was terminated by vacuum filtration through GF/C glass fiber filter plates. The filter plates were washed extensively and air-dried and sealed on the bottom. Liquid scintillate was added to the wells and the top sealed. After incubating the plates in cocktail for at least 2 h, the radioactivity present was determined by liquid scintillation spectrometry. Assays were done in duplicate, and results represent combined data from 3-6 experiments. Saturation and displacement data were analyzed by unweighted nonlinear regression of receptor binding data. For displacement studies, curve-fitting and IC50 calculation were done with GraphPad Prism (GraphPad Software, Inc., San Diego, CA).
(§4) Reference is made to the following reference, hereby incorporated by reference with regard to such assay, Zhang et al., Synthesis and biological evaluation of bivalent ligands for the cannabinoid 1 receptor, J Med Chem. 2010 Oct. 14; 53 (19):7048-60. doi: 10.1021/jm1006676.

[4] = biological target: T2, human CB2; test: In vitro binding affinity, [3H]CP-55,940 radioligand displacement, HEK cell membranes overexpressing human CB2; conditions: [3H]CP-55,940 displacement, read-out: hCB2 Ki
Experimental: as §3, §4

SMILES | EC50 [1] [nM] | hCB1 Ca Span [1] [%] | EC50 [2] [nM] | hCB2 Ca Span [2] [%] | Ki [3] [nM] | Ki [4] [nM]
CC(C)(NC(=O)c1nn(CC2CCC(F)(F)CC2)c2ccccc12)c1cccc(NC(N)=O)c1 [Example 22, N-{2-[3-(Carbamoylamino)phenyl]propan-2-yl}-1-[(4,4-difluorocyclohexyl)methyl]-1H-indazole-3-carboxamide] | 160 | 89 | 58 | 51 | – | –
CC(C)(NC(=O)c1nn(CC2CCOCC2)c2ccccc12)c1cccc(NC(N)=O)c1 [Example 23, N-{2-[3-(Carbamoylamino)phenyl]propan-2-yl}-1-(oxan-4-ylmethyl)-1H-indazole-3-carboxamide] | 1200 | 91 | 94 | 61 | – | –
CC(c1ccc(F)cc1)n1nc(C(=O)NC(C)(C)c2cccc(C(N)=O)c2)c2ccccc21 (stereo not drawn) [Example 14, N-[2-(3-Carbamoylphenyl)propan-2-yl]-1-[1-(4-fluorophenyl)ethyl]-1H-indazole-3-carboxamide] | 240 | 76 | > 10000 | – | – | –
CNC(=O)Nc1cccc(C(C)(C)NC(=O)c2nn(CCCCCF)c3ccccc23)c1 [Example 28, 1-(5-Fluoropentyl)-N-(2-{3-[(methylcarbamoyl)amino]phenyl}propan-2-yl)-1H-indazole-3-carboxamide] | 30 | 100 | 65 | 61 | – | –
C[C@@H](NC(=O)c1nn(Cc2ccc(F)cc2)c2ccccc12)c1cccc(C(N)=O)c1 [Example 10, N-[(1R)-1-(3-Carbamoylphenyl)ethyl]-1-[(4-fluorophenyl)methyl]-1H-indazole-3-carboxamide] | 490 | 19 | 660 | 25 | – | –
C[C@H](NC(=O)c1nn(Cc2ccc(F)cc2)c2ccccc12)c1cccc(C(N)=O)c1 [Example 11, N-[(1S)-1-(3-Carbamoylphenyl)ethyl]-1-[(4-fluorophenyl)methyl]-1H-indazole-3-carboxamide] | 27 | 86 | 50 | 48 | 7 | 34
CC(C)(NC(=O)c1nn(Cc2ccc(F)cc2)c2ccccc12)c1cccc(C(N)=O)c1 [Example 12, N-[2-(3-Carbamoylphenyl)propan-2-yl]-1-[(4-fluorophenyl)methyl]-1H-indazole-3-carboxamide] | 21 | 24 | 27 | 41 | 4 | 10
CC(C)(NC(=O)c1nn(CCCCCF)c2ccccc12)c1cccc(NC(N)=O)c1 [Example 25, N-{2-[3-(carbamoylamino)phenyl]propan-2-yl}-1-(5-fluoropentyl)-1H-indazole-3-carboxamide] | 570 | 65 | 170 | 51 | – | –
CC(C)(NC(=O)c1nn(CC2CCOCC2)c2ccccc12)c1cccc(C(N)=O)c1 [Example 16, N-[2-(3-Carbamoylphenyl)propan-2-yl]-1-(oxan-4-ylmethyl)-1H-indazole-3-carboxamide] | 140 | 92 | 63 | 57 | – | –
CC(C)(NC(=O)c1nn(Cc2ccc(F)cc2)c2ccccc12)c1cccc(NC(N)=O)c1 [Example 21, N-{2-[3-(Carbamoylamino)phenyl]propan-2-yl}-1-[(4-fluorophenyl)methyl]-1H-indazole-3-carboxamide] | 1600 | 34 | 160 | 34 | – | –
CC(C)(NC(=O)c1nn(Cc2ccc(F)cc2)c2ccccc12)C1CCCN(C(N)=O)C1 (stereo not drawn) [Example 29, N-[2-(1-Carbamoylpiperidin-3-yl)propan-2-yl]-1-[(4-fluorophenyl)methyl]-1H-indazole-3-carboxamide] | 140 | 75 | 46 | 36 | – | –
CCCCCn1nc(C(=O)NC(C)(C)c2cccc(NC(=O)NC)c2)c2ccccc21 [Example 27, N-(2-{3-[(Methylcarbamoyl)amino]phenyl}propan-2-yl)-1-pentyl-1H-indazole-3-carboxamide] | 100 | 100 | 170 | 55 | – | –
CC(C)(NC(=O)c1nn(CCCCCF)c2ccccc12)c1cccc(C(N)=O)c1 [Example 18, N-[2-(3-Carbamoylphenyl)propan-2-yl]-1-(5-fluoropentyl)-1H-indazole-3-carboxamide] | 78 | 27 | 84 | 35 | – | –
CC(C)(NC(=O)c1nn(CCCCC(F)(F)F)c2ccccc12)c1cccc(C(N)=O)c1 [Example 19, N-[2-(3-Carbamoylphenyl)propan-2-yl]-1-(5,5,5-trifluoropentyl)-1H-indazole-3-carboxamide] | 150 | 64 | 480 | 39 | – | –
CNC(=O)Nc1cccc(C(C)(C)NC(=O)c2nn(CC3CCC(F)(F)CC3)c3ccccc23)c1 [Example 26, 1-[(4,4-Difluorocyclohexyl)methyl]-N-(2-{3-[(methylcarbamoyl)amino]phenyl}propan-2-yl)-1H-indazole-3-carboxamide] | 16 | 110 | 34 | 61 | – | –
CC(C)(NC(=O)c1nn(CC2CCC(F)(F)CC2)c2ccccc12)c1cccc(C(N)=O)c1 [Example 15, N-[2-(3-Carbamoylphenyl)propan-2-yl]-1-[(4,4-difluorocyclohexyl)methyl]-1H-indazole-3-carboxamide] | 15 | 86 | 51 | 38 | – | –
CCCCCn1nc(C(=O)NC(C)(C)c2cccc(NC(N)=O)c2)c2ccccc21 [Example 24, N-{2-[3-(Carbamoylamino)phenyl]propan-2-yl}-1-pentyl-1H-indazole-3-carboxamide] | 1300 | 52 | 320 | 47 | – | –
CCCCCn1nc(C(=O)NC(C)(C)c2cccc(C(N)=O)c2)c2ccccc21 [Example 17, N-[2-(3-Carbamoylphenyl)propan-2-yl]-1-pentyl-1H-indazole-3-carboxamide] | 220 | 24 | 180 | 43 | – | –
CC(C)(NC(=O)c1cn(Cc2ccc(F)cc2)c2ccccc12)c1cccc(C(N)=O)c1 [Example 33, N-[2-(3-Carbamoylphenyl)propan-2-yl]-1-[(4-fluorophenyl)methyl]-1H-indole-3-carboxamide] | 870 | 25 | 160 | 30 | – | –
CC(C)(NC(=O)c1nn(Cc2ccc(F)cc2)c2ccccc12)C1CCN(C(N)=O)CC1 [Example 31, N-[2-(1-Carbamoylpiperidin-4-yl)propan-2-yl]-1-[(4-fluorophenyl)methyl]-1H-indazole-3-carboxamide] | 1000 | 64 | 140 | 57 | – | –
CC(C)(NC(=O)c1nn(Cc2ccc(F)cc2)c2ccccc12)C1CCN(CC(N)=O)CC1 [Example 32, N-{2-[1-(Carbamoylmethyl)piperidin-4-yl]propan-2-yl}-1-[(4-fluorophenyl)methyl]-1H-indazole-3-carboxamide] | 40 | 110 | 29 | 62 | – | –

— patent US20230339863A1, “INDAZOLE DERIVATIVES AS CANNABINOID RECEPTOR PARTIAL AGONISTS” (RESEARCH TRIANGLE INSTITUTE, priority 2020, published 2023)
